# In PubChem BioAssay (NCI):
#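 The compound was tested at five concentrations on cells cultured in 96-well plates, with a 48-hour exposure period. GI50 = concentration required for 50% inhibition of growth. TGI is the concentration that stops growth completely.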
# Key:
# Assay in all cases: NCI anticancer screen, dose series, 48 h
# MOLT-4 leukemia = tested on: MOLT-4 leukemia
# MDA-MB-231 breast = tested on: MDA-MB-231 breast
# SK-MEL-5 melanoma = tested on: SK-MEL-5 melanoma
# K-562 leukemia = tested on: K-562 leukemia
# NCI-H23 lung = tested on: NCI-H23 lung
# RXF 393 renal = tested on: RXF 393 renal
# UO-31 renal = tested on: UO-31 renal
# HOP-92 NSCLC = tested on: HOP-92 NSCLC
# MDA-MB-435 = tested on: MDA-MB-435
# SF-539 CNS = tested on: SF-539 CNS
# OVCAR-5 ovarian = tested on: OVCAR-5 ovarian
# NCI/ADR-RES ovarian = tested on: NCI/ADR-RES ovarian
# UACC-62 melanoma = tested on: UACC-62 melanoma
# CCRF-CEM leukemia = tested on: CCRF-CEM leukemia
# HCC-2998 colon = tested on: HCC-2998 colon
# HCT-116 colon = tested on: HCT-116 colon
# SN12C renal = tested on: SN12C renal
# HOP-62 NSCLC = tested on: HOP-62 NSCLC
# MALME-3M melanoma = tested on: MALME-3M melanoma
# CAKI-1 renal = tested on: CAKI-1 renal
# RPMI-8226 leukemia = tested on: RPMI-8226 leukemia
# SW-620 colon = tested on: SW-620 colon
# NCI-H522 lung = tested on: NCI-H522 lung
# M14 melanoma = tested on: M14 melanoma
# A498 renal = tested on: A498 renal
# NCI-H460 lung = tested on: NCI-H460 lung
# A549 NSCLC = tested on: A549 NSCLC
# ACHN renal = tested on: ACHN renal
# MCF7 breast = tested on: MCF7 breast
# HT29 colon = tested on: HT29 colon
# SK-OV-3 ovarian = tested on: SK-OV-3 ovarian
# EKVX NSCLC = tested on: EKVX NSCLC
# BT-549 breast = tested on: BT-549 breast
# DU-145 prostate = tested on: DU-145 prostate
# SF-295 CNS = tested on: SF-295 CNS
# LOX IMVI melanoma = tested on: LOX IMVI melanoma
# SK-MEL-28 melanoma = tested on: SK-MEL-28 melanoma
# OVCAR-8 ovarian = tested on: OVCAR-8 ovarian
# T-47D breast = tested on: T-47D breast
# SNB-19 CNS = tested on: SNB-19 CNS
# HCT-15 colon = tested on: HCT-15 colon
# UACC-257 melanoma = tested on: UACC-257 melanoma
# KM12 colon = tested on: KM12 colon
# SF-268 CNS = tested on: SF-268 CNS
# COLO 205 colon = tested on: COLO 205 colon
# NCI-H226 lung = tested on: NCI-H226 lung
# 786-0 renal = tested on: 786-0 renal
# SK-MEL-2 melanoma = tested on: SK-MEL-2 melanoma
# OVCAR-3 ovarian = tested on: OVCAR-3 ovarian
# HS 578T breast = tested on: HS 578T breast
# PC-3 prostate = tested on: PC-3 prostate
# TK-10 renal = tested on: TK-10 renal
# IGROV1 ovarian = tested on: IGROV1 ovarian
# SR leukemia = tested on: SR leukemia
# SNB-75 CNS = tested on: SNB-75 CNS
# OVCAR-4 ovarian = tested on: OVCAR-4 ovarian
# U251 CNS = tested on: U251 CNS
structure (smiles),measurement,setting,value
CCOC(=O)Oc1c(OC)cc(C(=O)c2ccc(OC)c(OC(=O)CCl)c2OC)cc1OC,GI50,MOLT-4 leukemia,0.994 µM
same,TGI,MOLT-4 leukemia,> 100 µM
same,GI50,MDA-MB-231 breast,1.9 µM
same,TGI,MDA-MB-231 breast,> 100 µM
same,GI50,SK-MEL-5 melanoma,0.475 µM
same,TGI,SK-MEL-5 melanoma,14.9 µM
same,GI50,K-562 leukemia,0.457 µM
same,TGI,K-562 leukemia,> 100 µM
same,GI50,NCI-H23 lung,3.86 µM
same,TGI,NCI-H23 lung,> 100 µM
same,GI50,RXF 393 renal,1.54 µM
same,TGI,RXF 393 renal,8.08 µM
same,GI50,UO-31 renal,3.07 µM
same,TGI,UO-31 renal,> 100 µM
same,GI50,HOP-92 NSCLC,1.78 µM
same,TGI,HOP-92 NSCLC,> 100 µM
same,GI50,MDA-MB-435,0.239 µM
same,TGI,MDA-MB-435,0.773 µM
same,GI50,SF-539 CNS,0.805 µM
same,TGI,SF-539 CNS,6.38 µM
same,GI50,OVCAR-5 ovarian,5.88 µM
same,TGI,OVCAR-5 ovarian,> 100 µM
same,GI50,NCI/ADR-RES ovarian,0.497 µM
same,TGI,NCI/ADR-RES ovarian,3.98 µM
same,GI50,UACC-62 melanoma,2.67 µM
same,TGI,UACC-62 melanoma,> 100 µM
same,GI50,CCRF-CEM leukemia,0.662 µM
same,TGI,CCRF-CEM leukemia,> 100 µM
same,GI50,HCC-2998 colon,3.36 µM
same,TGI,HCC-2998 colon,> 100 µM
same,GI50,HCT-116 colon,0.494 µM
same,TGI,HCT-116 colon,36.2 µM
same,GI50,SN12C renal,3.39 µM
same,TGI,SN12C renal,> 100 µM
same,GI50,HOP-62 NSCLC,0.836 µM
same,TGI,HOP-62 NSCLC,> 100 µM
same,GI50,MALME-3M melanoma,0.688 µM
same,TGI,MALME-3M melanoma,79.9 µM
same,GI50,CAKI-1 renal,3.76 µM
same,TGI,CAKI-1 renal,> 100 µM
same,GI50,RPMI-8226 leukemia,1.98 µM
same,TGI,RPMI-8226 leukemia,> 100 µM
same,GI50,SW-620 colon,0.455 µM
same,TGI,SW-620 colon,> 100 µM
same,GI50,NCI-H522 lung,0.264 µM
same,TGI,NCI-H522 lung,1.31 µM
same,GI50,M14 melanoma,0.491 µM
same,TGI,M14 melanoma,> 100 µM
same,GI50,A498 renal,3 µM
same,TGI,A498 renal,16.6 µM
same,GI50,NCI-H460 lung,2.09 µM
same,TGI,NCI-H460 lung,44.9 µM
same,GI50,A549 NSCLC,3.39 µM
same,TGI,A549 NSCLC,> 100 µM
same,GI50,ACHN renal,3.66 µM
same,TGI,ACHN renal,> 100 µM
same,GI50,MCF7 breast,0.88 µM
same,TGI,MCF7 breast,> 100 µM
same,GI50,HT29 colon,3.15 µM
same,TGI,HT29 colon,18.8 µM
same,GI50,SK-OV-3 ovarian,2.58 µM
same,TGI,SK-OV-3 ovarian,> 100 µM
same,GI50,EKVX NSCLC,3.63 µM
same,TGI,EKVX NSCLC,> 100 µM
same,GI50,BT-549 breast,0.996 µM
same,TGI,BT-549 breast,9.5 µM
same,GI50,DU-145 prostate,1.83 µM
same,TGI,DU-145 prostate,> 100 µM
same,GI50,SF-295 CNS,0.886 µM
same,TGI,SF-295 CNS,33.7 µM
same,GI50,LOX IMVI melanoma,0.677 µM
same,TGI,LOX IMVI melanoma,> 100 µM
same,GI50,SK-MEL-28 melanoma,2.31 µM
same,TGI,SK-MEL-28 melanoma,> 100 µM
same,GI50,OVCAR-8 ovarian,2.65 µM
same,TGI,OVCAR-8 ovarian,> 100 µM
same,GI50,T-47D breast,7.32 µM
same,TGI,T-47D breast,> 100 µM
same,GI50,SNB-19 CNS,0.75 µM
same,TGI,SNB-19 CNS,> 100 µM
same,GI50,HCT-15 colon,0.415 µM
same,TGI,HCT-15 colon,> 100 µM
same,GI50,UACC-257 melanoma,66.6 µM
same,TGI,UACC-257 melanoma,> 100 µM
same,GI50,KM12 colon,0.543 µM
same,TGI,KM12 colon,> 100 µM
same,GI50,SF-268 CNS,10.7 µM
same,TGI,SF-268 CNS,> 100 µM
same,GI50,COLO 205 colon,9.57 µM
same,TGI,COLO 205 colon,66.7 µM
same,GI50,NCI-H226 lung,4.38 µM
same,TGI,NCI-H226 lung,37.9 µM
same,GI50,786-0 renal,3.45 µM
same,TGI,786-0 renal,> 100 µM
same,GI50,SK-MEL-2 melanoma,0.668 µM
same,TGI,SK-MEL-2 melanoma,60.2 µM
same,GI50,OVCAR-3 ovarian,0.414 µM
same,TGI,OVCAR-3 ovarian,23 µM
same,GI50,HS 578T breast,0.556 µM
same,TGI,HS 578T breast,> 100 µM
same,GI50,PC-3 prostate,2.83 µM
same,TGI,PC-3 prostate,> 100 µM
same,GI50,TK-10 renal,> 100 µM
same,TGI,TK-10 renal,> 100 µM
same,GI50,IGROV1 ovarian,3.36 µM
same,TGI,IGROV1 ovarian,> 100 µM
same,GI50,SR leukemia,0.459 µM
same,TGI,SR leukemia,> 100 µM
same,GI50,SNB-75 CNS,0.528 µM
same,TGI,SNB-75 CNS,> 100 µM
same,GI50,OVCAR-4 ovarian,6.34 µM
same,TGI,OVCAR-4 ovarian,> 100 µM
same,GI50,U251 CNS,0.926 µM
same,TGI,U251 CNS,> 100 µM
